One test addresses T1, Cox-1 (Homo sapiens, UniProt P23219).
T1 construct: platelets in whole blood contain a large amount of the Cox-1 enzyme; endogenous in cells; host or cells: platelets in fresh human whole blood (clotting)
In words: Human whole blood assay, Cox-1 (clotting-induced TxB2 production). Type of test: cell-based. Conditions: TxB2 following blood clotting. As for the experimental part:
(§1) Immediately following blood clotting, platelets are activated through a thrombin-mediated mechanism.
Aliquots of 500 μL were immediately transferred to siliconized microcentrifuge tubes preloaded with 2 μL of either DMSO or a test compound at final concentrations varying from 10 nM to 30 μM. The tubes were vortexed and incubated at 37° C. for 1 hour to allow blood to clot.
(§2) In the assay, inhibition is determined by measuring the amount of prostaglandin E2 (PGE2) synthesized in the presence of arachidonic acid, cyclooxygenase-1 or cyclooxygenase-2 and a putative inhibitor.

A further test concerns the target T2, Cox-2 (Homo sapiens, UniProt P35354).
T2 construct: incubation of human whole blood with LPS (lipopoly saccharide), which induces Cox-2; endogenous in cells
T2 sequence (P35354 18-604): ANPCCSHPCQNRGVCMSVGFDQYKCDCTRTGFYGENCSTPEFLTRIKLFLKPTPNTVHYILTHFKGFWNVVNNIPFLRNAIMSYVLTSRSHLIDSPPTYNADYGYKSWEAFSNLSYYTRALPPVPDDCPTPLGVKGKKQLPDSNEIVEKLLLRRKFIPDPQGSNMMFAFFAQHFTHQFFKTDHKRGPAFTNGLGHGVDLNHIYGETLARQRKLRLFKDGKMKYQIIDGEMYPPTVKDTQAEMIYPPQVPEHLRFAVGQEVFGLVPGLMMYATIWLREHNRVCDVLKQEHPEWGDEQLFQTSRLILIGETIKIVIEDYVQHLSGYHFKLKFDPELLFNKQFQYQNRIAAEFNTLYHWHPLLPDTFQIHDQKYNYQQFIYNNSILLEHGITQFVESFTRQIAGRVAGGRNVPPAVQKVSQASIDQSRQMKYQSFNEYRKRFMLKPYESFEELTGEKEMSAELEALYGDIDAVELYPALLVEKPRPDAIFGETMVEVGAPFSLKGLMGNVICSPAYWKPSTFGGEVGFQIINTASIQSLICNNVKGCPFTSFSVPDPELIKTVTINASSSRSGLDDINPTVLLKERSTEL
In words: Human whole blood assay, Cox-2 (LPS-induced PGE2 production). The test is classed as cell-based. Conditions: PGE2 after LPS induction, 24 hours. The protocol: as §1
Fresh blood was collected in heparinized tubes by venipuncture from both male and female volunteers. The subjects had no apparent inflammatory conditions and had not taken any NSAIDs for at least 7 days prior to blood collection. Plasma was immediately obtained from a 2 mL blood aliquot to use as blank (basal levels of PGE2).
as §2

In a further test the test system is rat paw edema. Conditions: po, carrageenan paw edema, 3 hr. Background: Carrageenan injected into the paw causes an acute inflammation.

In patent US5552422A, “Aryl substituted 5,5 fused aromatic nitrogen compounds as anti-inflammatory agents” (Merck Frosst Canada, Inc., priority 1995, dated 1996) one finds IC50 and ED50 data, which are given here for two molecules.

T1 sequence (P23219 24-599): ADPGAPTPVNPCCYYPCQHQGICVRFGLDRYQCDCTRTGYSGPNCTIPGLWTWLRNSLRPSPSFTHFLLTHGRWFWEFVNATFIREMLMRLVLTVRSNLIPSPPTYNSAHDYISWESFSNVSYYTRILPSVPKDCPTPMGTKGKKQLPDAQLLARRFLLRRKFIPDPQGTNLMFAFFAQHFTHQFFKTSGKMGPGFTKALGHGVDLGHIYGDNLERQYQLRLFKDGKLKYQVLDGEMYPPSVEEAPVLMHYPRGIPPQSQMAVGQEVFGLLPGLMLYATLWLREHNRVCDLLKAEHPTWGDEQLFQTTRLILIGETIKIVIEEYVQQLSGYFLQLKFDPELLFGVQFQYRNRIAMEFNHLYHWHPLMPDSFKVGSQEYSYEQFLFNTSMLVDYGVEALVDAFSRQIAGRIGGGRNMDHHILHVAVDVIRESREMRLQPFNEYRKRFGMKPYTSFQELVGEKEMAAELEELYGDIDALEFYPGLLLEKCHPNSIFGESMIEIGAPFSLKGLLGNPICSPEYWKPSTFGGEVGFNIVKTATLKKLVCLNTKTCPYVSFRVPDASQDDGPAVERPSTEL
Method for rat paw edema: Male Sprague-Dawley rats (150-200 g) were fasted overnight and were given po either vehicle (1% methocel or 5% Tween 80) or a test compound. One hr later, a line was drawn using a permanent marker at the level above the ankle in one hind paw to define the area of the paw to be monitored. The paw volume (V0) was measured using a plethysmometer (Ugo-Basile, Italy) based on the principle of water displacement. The animals were then injected subplantarly with 50 μl of 1% carrageenan solution in saline (FMC Corp, Maine) into the paw using an insulin syringe with a 25-gauge needle (i.e., 500 μg carrageenan per paw). Three hr later, the paw volume (V3) was measured and the increases in paw volume (V3 -V0) were calculated. The animals were sacrificed by CO2 aphyxiation and the absence or presence of stomach lesions scored. Data were compared with the vehicle-control values and percent inhibition calculated. […] All treatment groups were coded to eliminate observer bias.

Turning to `CS(=O)(=O)c1ccc(-c2c(-c3ccccc3)nc3sccn23)cc1` [Example 1, 5-(4-(Methylsulfonyl)phenyl)-6-phenylimidazo[2,1-b]thiazole], the IC50 against Cox-1 was above 30 µM; on Cox-2, 0.33 µM. The molecule `COc1ccc2c(c1)c(CC(=O)O)c(C)n2C(=O)c1ccc(Cl)cc1` [Indomethacin, indomethacin] yielded an ED50 in the test on rat paw edema of 2 mg/kg.

By IC50 is commonly meant the concentration that inhibits the measured activity by half. Broadly, the ED50 is the dose at which the effect has come halfway, by size or by number of responders. A lower ED50 goes with an effect at a small dose.
